According to patent US6673827B1, “Methods of treating fungal infections with inhibitors of NAD synthetase enzyme” (priority 1999, dated 2004):
Several values for one entry are separate records, joined by “and”; a condition that tells them apart may be missing. Equal values may be shown once.

Assays:
[1] = system: Cryptococcus neoformans SLP-BC0012854; experiment: In vitro study of inhibition of growth and lethality against yeast (MIC/MLC susceptibility test), isolate H; type: cell-based; settings: Cryptococcus neoformans, 2nd pair of lines, isolate assigned by line order
[2] = system: Candida albicans KJP-000531594; experiment: In vitro study of inhibition of growth and lethality against yeast (MIC/MLC susceptibility test), isolate C; type: cell-based; settings: Candida albicans, 1st pair of lines
[3] = system: Torulopsis glabrata JHC-BC9951635; experiment: In vitro study of inhibition of growth and lethality against yeast (MIC/MLC susceptibility test), isolate E; type: cell-based; settings: Torulopsis glabrata, 2nd pair of lines, isolate assigned by line order
[4] = system: Candida tropicalis ATCC 750; experiment: In vitro study of inhibition of growth and lethality against yeast (MIC/MLC susceptibility test), isolate A; type: cell-based; settings: Candida tropicalis, 2nd pair of lines, isolate assigned by line order
[5] = system: Candida albicans (ATCC 10231); experiment: Minimum Inhibitory Concentration (MIC) against yeast, broth dilution; type: cell-based; settings: 37° C., 20 hours, mean of duplicate
[6] = system: Candida albicans LH-000664533; experiment: In vitro study of inhibition of growth and lethality against yeast (MIC/MLC susceptibility test), isolate D; type: cell-based; settings: Candida albicans, 2nd pair of lines, isolate assigned by line order
Male CD-1 mice = experiment: In vivo toxicity: intraperitoneal (IP) dosage in mice resulting in 50% lethality (LD50); settings: single IP dose, observed 14 days
[7] = system: Torulopsis glabrata ERH-BC9938274; experiment: In vitro study of inhibition of growth and lethality against yeast (MIC/MLC susceptibility test), isolate F; type: cell-based; settings: Torulopsis glabrata, 1st pair of lines, isolate assigned by line order
[8] = system: Candida tropicalis (ATCC 28707-amphotericin B-resistant); experiment: Minimum Inhibitory Concentration (MIC) against yeast, broth dilution; type: cell-based; settings: 37° C., 20 hours, mean of duplicate
[9] = system: Candida tropicalis ATCC 28707; experiment: In vitro study of inhibition of growth and lethality against yeast (MIC/MLC susceptibility test), isolate B; type: cell-based; settings: Candida tropicalis, 1st pair of lines, isolate assigned by line order
[10] = system: Cryptococcus neoformans DLB-1027594CNC; experiment: In vitro study of inhibition of growth and lethality against yeast (MIC/MLC susceptibility test), isolate G; type: cell-based; settings: Cryptococcus neoformans, 1st pair of lines, isolate assigned by line order
[11] = target: T1, NAD synthetase (recombinant protein from B. subtilis; purified) (Bacillus subtilis, UniProt P08164); experiment: NAD synthetase enzyme inhibition assay (coupled enzymatic assay, HTS); type: biochemical; settings: table of structures used in the yeast assay (Example 4)
T1 construct: made in house
Description: NAD Synthetase Enzyme Inhibition Assay-Determination of Test Compound Concentrations Providing 50% Inhibition ([…]) of the Maximum Enzyme Rate
The potential inhibitory activity of the synthetic compounds was determined by the use of a coupled enzymatic assay. The coupled assay involves two steps as summarized below. [drawing 98]
The measurement of inhibitory activities of the test compounds was facilitated by the use of a high through-put screening system (HTS system). The HTS system utilizes an integrated Sagian 2M ORCA robotic system coordinating the functions of a Beckman Biomek 2000 liquid handler and a Molecular Devices SpectraMax Plus spectrophotometer. The 2M ORCA robotic station is responsible for the movement of all hardware and the integration of multiple stations on the worksurface. The Biomek 2000 is programmed to perform all phases of liquid dispensing and mixing. The SpectraMax Plus spectrophotometer is equipped to monitor absorbance in a 96-well plate format.
The Biomek 2000 mixes these components utilizing a predefined mixing program. […] The reaction is monitored by measuring the increase in absorbance at 340 nm (NADH). The linear portion of the reaction is monitored for 180 sec. The initial velocity is determined using Softmax Pro, the software supplied with the Molecular Devices SpectrMax Plus spectrophotometer.
The test compounds were supplied as a stock solution with a concentration of 50 mM dissolved in 100% dimethyl sulfoxide (DMSO). An initial screen was conducted on all compounds using a 2 or 3 concentration screen. The 2 panel screen used concentrations of 0.2 mM and 0.1 mM for the compounds. The 3 panel screen used concentrations of 0.2 mM, 0.1 mM, and 0.05 mM. […] The IC50 values for each compound were determined graphically from a plot of % inhibition versus […].

[12] = system: Candida tropicalis (ATCC 750); experiment: Minimum Inhibitory Concentration (MIC) against yeast, broth dilution; type: cell-based; settings: 37° C., 20 hours, mean of duplicate

T1 sequence (P08164 whole entry): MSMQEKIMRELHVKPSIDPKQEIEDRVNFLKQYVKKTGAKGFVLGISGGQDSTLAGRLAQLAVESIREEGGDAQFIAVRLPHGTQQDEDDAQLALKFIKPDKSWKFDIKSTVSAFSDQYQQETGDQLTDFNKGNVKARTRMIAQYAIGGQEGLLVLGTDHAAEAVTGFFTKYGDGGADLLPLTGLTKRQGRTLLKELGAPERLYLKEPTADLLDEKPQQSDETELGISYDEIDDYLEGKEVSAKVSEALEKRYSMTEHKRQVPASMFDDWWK

SMILES: C[n+]1cccc(C(=O)OCCCCCCCCn2ccc3cc(OCc4ccccc4)ccc32)c1 [Compound 769]
- Minimum Inhibitory Conc. (MIC), 48 hr. ([1]; read at 48 hr): 0.5 µg/mL and 1 µg/mL
- Minimum Inhibitory Conc. (MIC), 72 hr. ([1]; read at 72 hr): 0.5 µg/mL and 1 µg/mL
- Minimum Lethal Conc. (MLC) [1]: 2 µg/mL
- Minimum Inhibitory Conc. (MIC), 24 hr. ([2]; read at 24 hr, isolate not given, assigned by line order and MLC of Table 4B): 2 µg/mL and 1 µg/mL
- Minimum Inhibitory Conc. (MIC), 48 hr. ([2]; read at 48 hr, isolate assigned by line order): 2 µg/mL and 4 µg/mL
- Minimum Lethal Conc. (MLC) ([2]; isolate assigned by line order): 8 µg/mL
- Minimum Inhibitory Conc. (MIC), 24 hr. ([3]; read at 24 hr): 0.5 µg/mL
- Minimum Inhibitory Conc. (MIC), 48 hr. ([3]; read at 48 hr): 1 µg/mL
- Minimum Lethal Conc. (MLC) [3]: 1 µg/mL
- Minimum Inhibitory Conc. (MIC), 24 hr. ([4]; read at 24 hr): 1 µg/mL
- Minimum Inhibitory Conc. (MIC), 48 hr. ([4]; read at 48 hr): 1 µg/mL
- Minimum Lethal Conc. (MLC) [4]: 2 µg/mL
- MIC Candida albicans (ATCC 10231) [5]: 4.7 µg/mL
- Minimum Inhibitory Conc. (MIC), 24 hr. ([6]; read at 24 hr): 1 µg/mL
- Minimum Inhibitory Conc. (MIC), 48 hr. ([6]; read at 48 hr): 2 µg/mL
- Minimum Lethal Conc. (MLC) [6]: 8 µg/mL
- LD50 (Male CD-1 mice): 43 mg/kg
- Minimum Inhibitory Conc. (MIC), 24 hr. ([7]; read at 24 hr): 1 µg/mL
- Minimum Inhibitory Conc. (MIC), 48 hr. ([7]; read at 48 hr): 2 µg/mL
- Minimum Lethal Conc. (MLC) [7]: 2 µg/mL
- MIC Candida tropicalis (ATCC 28707) [8]: 0.098 µg/mL
- Minimum Inhibitory Conc. (MIC), 24 hr. ([9]; read at 24 hr): 0.25 µg/mL
- Minimum Inhibitory Conc. (MIC), 48 hr. ([9]; read at 48 hr): 0.5 µg/mL
- Minimum Lethal Conc. (MLC) [9]: 2 µg/mL
- Minimum Inhibitory Conc. (MIC), 48 hr. ([10]; read at 48 hr): 0.5 µg/mL
- Minimum Inhibitory Conc. (MIC), 72 hr. ([10]; read at 72 hr): 1 µg/mL
- Minimum Lethal Conc. (MLC) [10]: 2 µg/mL
- IC50 (μg/mL) for Inhibit. of NAD Synthetase [11]: 20 µg/mL
- MIC Candida tropicalis (ATCC 750) [12]: 0.098 µg/mL
